Assay results published in the CheMixHub viscosity set.
Several values for one entry are separate records, joined by “and”; a condition that tells them apart may be missing. Equal values may be shown once.

Assay: xn = mol fraction of the nth substance listed

Cc1nc(C)n(C)c1C + O
viscosity [mPa·s], 100 kPa
Conditions | x1 = 0.0159 | x1 = 0.035 | x1 = 0.0585 | x1 = 0.0882 | x1 = 0.127
298.15 K | 1.258 | 1.817 | 2.65 | 3.86 | 5.77
303.15 K | 1.125 | 1.61 | 2.31 | 3.35 | 4.91
313.15 K | 0.899 | 1.244 | 1.733 | 2.53 | 3.36
323.15 K | 0.756 | 0.998 | 1.344 | 1.806 | 2.44

O=C(O)C(=O)O + C[N+](C)(C)CCO.[Cl-]
viscosity [mPa·s], x2 = 0.5
Conditions | 293.15 K | 293.2 K | 298.15 K | 303.2 K | 308.15 K | 313.2 K | 318.15 K
100 kPa | 15680 | – | 8953 | – | 3332 | – | 1421
101.3 kPa | – | 7595 | – | 4359 | – | 2174 | –

CCCCCOC(C)=O + ClCCCl
303.15 K, 101.3 kPa
Conditions | viscosity [mPa·s]
x1 = 0.1052 | 0.7366
x1 = 0.196 | 0.7444
x1 = 0.303 | 0.7582
x1 = 0.4004 | 0.7651
x1 = 0.4924 | 0.7693
x1 = 0.5994 | 0.7716
x1 = 0.702 | 0.7686
x1 = 0.805 | 0.762
x1 = 0.8946 | 0.7597

O=C(O)CO + C[N+](C)(C)CCO.[Cl-]
100 kPa, x2 = 0.5
Conditions | viscosity [mPa·s]
293.15 K | 779.4
298.15 K | 547.9
303.15 K | 394.8
308.15 K | 290.6
313.15 K | 218.6
318.15 K | 167
323.15 K | 130.1

C=CC(=O)OC + CO
viscosity [mPa·s], 101.33 kPa
Conditions | 308.15 K | 318.15 K
x1 = 0.0546 | 0.464 | 0.419
x1 = 0.157 | 0.443 | 0.412
x1 = 0.2569 | 0.426 | 0.404
x1 = 0.3537 | 0.413 | 0.397
x1 = 0.453 | 0.403 | 0.388
x1 = 0.501 | 0.399 | 0.384
x1 = 0.5588 | 0.394 | 0.379
x1 = 0.655 | 0.39 | 0.369
x1 = 0.7566 | 0.387 | 0.359
x1 = 0.8561 | 0.387 | 0.349
x1 = 0.9556 | 0.389 | 0.338

CC(C)CO + C1COCCO1
298.15 K, 101 kPa
Conditions | viscosity [mPa·s]
x2 = 0.0416 | 2.787
x2 = 0.125 | 2.14
x2 = 0.2354 | 1.668
x2 = 0.3104 | 1.489
x2 = 0.4165 | 1.296
x2 = 0.4739 | 1.231
x2 = 0.5066 | 1.206
x2 = 0.5756 | 1.153
x2 = 0.5788 | 1.144
x2 = 0.7141 | 1.107
x2 = 0.7411 | 1.098
x2 = 0.7859 | 1.107
x2 = 0.832 | 1.099
x2 = 0.8845 | 1.109
x2 = 0.9419 | 1.131

CC1=CCC2CC1C2(C)C (stereo not drawn) + CCCCCC
298.15 K, 101.33 kPa
Conditions | viscosity [mPa·s]
x2 = 0.0422 | 1.207
x2 = 0.06195 | 1.165
x2 = 0.1087 | 1.077
x2 = 0.254 | 0.842
x2 = 0.3759 | 0.699
x2 = 0.5049 | 0.577
x2 = 0.6267 | 0.487
x2 = 0.7168 | 0.43
x2 = 0.867 | 0.355
x2 = 0.9244 | 0.326
x2 = 0.9625 | 0.31

Cc1ccccc1O + C[N+](C)(C)CCO.[Cl-]
298.15 K, 101.33 kPa
Conditions | viscosity
x1 = 0.7 | 137.1 mPa·s
x1 = 0.8 | 73.25 mPa·s and 56.18 mPa·s and 47.22 mPa·s
x1 = 0.9 | 38.19 mPa·s

CCCCCCCCCCCCc1ccccc1 + CCCCCCCCCCCCCCCC
viscosity [mPa·s], 102 kPa
Conditions | x1 = 0.09264 | x1 = 0.1868 | x1 = 0.2826 | x1 = 0.3803 | x1 = 0.4789 | x1 = 0.5793 | x1 = 0.6819 | x1 = 0.786 | x1 = 0.892
293.15 K | 3.55 | 3.67 | 3.82 | 3.99 | 4.16 | 4.36 | 4.59 | 4.85 | 5.14
303.15 K | 2.81 | 2.9 | 3.01 | 3.13 | 3.26 | 3.41 | 3.58 | 3.76 | 3.97
313.15 K | 2.27 | 2.35 | 2.43 | 2.52 | 2.63 | 2.74 | 2.86 | 3 | 3.16
323.15 K | 1.88 | 1.94 | 2.01 | 2.08 | 2.16 | 2.25 | 2.34 | 2.45 | 2.57

CC(C)CO + CN1CCCC1=O
298.15 K, 101 kPa
Conditions | viscosity [mPa·s]
x2 = 0.0577 | 2.895
x2 = 0.1202 | 2.548
x2 = 0.1587 | 2.399
x2 = 0.2004 | 2.276
x2 = 0.2421 | 2.18
x2 = 0.3117 | 2.053
x2 = 0.368 | 1.982
x2 = 0.4264 | 1.931
x2 = 0.4568 | 1.896
x2 = 0.5217 | 1.854
x2 = 0.5616 | 1.83
x2 = 0.6113 | 1.82
x2 = 0.6662 | 1.796
x2 = 0.711 | 1.776
x2 = 0.7618 | 1.752
x2 = 0.8039 | 1.747
x2 = 0.8557 | 1.717
x2 = 0.8982 | 1.704
x2 = 0.9723 | 1.677

CCCCCOC(=O)CCC + CC(=O)O
viscosity [mPa·s], 101 kPa
Conditions | 298.15 K | 313.15 K
x1 = 0.1013 | 1.06 | 0.853
x1 = 0.1499 | 1.04 | 0.836
x1 = 0.2007 | 1.02 | 0.824
x1 = 0.2515 | 1.03 | 0.827
x1 = 0.3014 | 1.03 | 0.833
x1 = 0.4 | 1.04 | 0.833
x1 = 0.4999 | 1.05 | 0.846
x1 = 0.6018 | 1.07 | 0.85
x1 = 0.6919 | 1.08 | 0.859
x1 = 0.804 | 1.08 | 0.86
x1 = 0.8906 | 1.08 | 0.861
x1 = 0.9459 | 1.07 | 0.859
